This note sets out measurements from ChEMBL document CHEMBL5584201, “Amphiphilic tribasic galactosamines potentiate rifampicin in Gram-negative bacteria at low Mg++/Ca++concentrations” (Bioorg Med Chem Lett, 2024).

In data set [1] the test system is Acinetobacter baumannii. Put plainly: Potentiation of rifampicin-induced antibacterial activity against Acinetobacter baumannii ATCC 17978 assessed as rifampicin MIC at 2 to 8 microg/ml in high concentration of Ca++ and Mg++ containing media by Mueller-Hinton broth based assay. Format: functional. The settings on record: dose 2-8 µg/ml.
The subject of data set [2] is Acinetobacter baumannii. As to the kind of experiment: Potentiation of rifampicin-induced antibacterial activity against multidrug resistant Acinetobacter baumannii AB027 assessed as fold change in rifampicin MIC at 1/4 MIC in low salt containing media by Mueller-Hinton broth based assay. Format: functional.
Data set [3] has as its system Escherichia coli. Put plainly: Potentiation of rifampicin-induced antibacterial activity against Escherichia coli ATCC 25922 assessed as rifampicin MIC at 16 microg/ml in high concentration of Ca++ and Mg++ containing media by Mueller-Hinton broth based assay. Format: functional. The settings on record: dose 16 µg/ml.
Data set [4] relates to Pseudomonas aeruginosa. Put plainly: Potentiation of rifampicin-induced antibacterial activity against Pseudomonas aeruginosa PA262 assessed as rifampicin MIC at 2 to 8 microg/ml in high concentration of Ca++ and Mg++ containing media by Mueller-Hinton broth based assay. Format: functional. The settings on record: dose 2-8 µg/ml.
Data set [5] has as its system Escherichia coli. As to the kind of experiment: Potentiation of rifampicin-induced antibacterial activity against Escherichia coli […] assessed as fold change in rifampicin MIC at 16 microg/ml in high concentration of Ca++ and Mg++ containing media by Mueller-Hinton broth based assay. The conditions noted are these: dose 16 µg/ml. Format: functional.
The test system of data set [6] is Escherichia coli. Put plainly: Antibacterial activity against Escherichia coli ATCC 25922 in low salt containing media by Mueller-Hinton broth based assay. Format: functional.
The test system of data set [7] is Acinetobacter baumannii. Put plainly: Potentiation of rifampicin-induced antibacterial activity against multidrug resistant Acinetobacter baumannii LAC-4 assessed as fold change in rifampicin MIC at 1/4 MIC in low salt containing media by Mueller-Hinton broth based assay. Format: functional.
The test system of data set [8] is Escherichia coli. Put plainly: Potentiation of rifampicin-induced antibacterial activity against Escherichia coli […] assessed as rifampicin MIC at 16 microg/ml in high concentration of Ca++ and Mg++ containing media by Mueller-Hinton broth based assay. The conditions noted are these: dose 16 µg/ml. Format: functional.
Data set [9] concerns Pseudomonas aeruginosa. Put plainly: Antibacterial activity against Pseudomonas aeruginosa PAO1 in high concentration of Ca++ and Mg++ containing media by Mueller-Hinton broth based assay. Format: functional.
The test system of data set [10] is Escherichia coli. Put plainly: Potentiation of rifampicin-induced antibacterial activity against Escherichia coli clinical isolate 107115 assessed as fold change in rifampicin MIC at 1/4 MIC in low salt containing media by Mueller-Hinton broth based assay. Format: functional.
The nature of data set [11]: Cytotoxicity against human HepG2 cells assessed as cell viability at 9 uM relative to control. Format: toxicity, cell-based. The conditions noted are these: read-out: Activity.
Data set [12] deals with Escherichia coli. Put plainly: Potentiation of rifampicin-induced antibacterial activity against Escherichia coli […] assessed as fold change in rifampicin MIC at 2 to 8 microg/ml in high concentration of Ca++ and Mg++ containing media by Mueller-Hinton broth based assay. Format: functional. The settings on record: dose 2-8 µg/ml.

As to `CCCCCCCCO[C@@H]1O[C@H](CN)[C@H](N)[C@H](OCc2ccc3ccccc3c2)[C@H]1N`, the minimal inhibitory concentration (MIC) in data set [1] is 4 µg/mL; in [3] it was 16 µg/mL; in data set [4] it was 8 µg/mL; in data set [6] it was 8 µg/mL; in [8], 16 µg/mL; in data set [9], more than 128 µg/mL. For the same compound, the “fold change (FC)” value in [2] amounted to 64; in data set [5] it was 8; in [7], 64; in [10], 64; in data set [12] it was 1. In data set [11], the viability at 9 µM is 85%.
